Where two headings read alike, the source gives them in different places.
Assays:
[1] = test system: peritoneal resident macrophages (PRM); assay: In vivo treatment/ex vivo PRM activation, TNFα and IL-6 in supernatant; set-up: species or system hVISTA mice; conditions: linker/payloads as anti-VISTA conjugates
Experimental: Based thereon we developed a model to allow us to evaluate long-term anti-inflammatory impact of ADC on specific target populations, such as PRMs. […] In the absence of GC treatment, after 2h PRMs become highly activated as shown by increases in cytokine production. […] The objective of these studies was to evaluate the efficacy and pharmacodynamic range of INX human VISTA antibodies conjugated to a glucocorticoid payload as compared to free Dex.
After euthanasia, mice were injected in the peritoneal cavity with 7 ml of PBS/0.5% BSA/2 mM EDTA. After a brief massage of the peritoneum, a small incision was performed and the peritoneal lavage collected. PRM were isolated using negative selection (Miltenyi kit, ref 130-110-434). Spleen were dissected and dissociated mechanically; monocytes were isolated using […] (Stem Cell, EasySep™ Mouse CD11b Positive Selection Kit II).
PRMs were resuspended in RPMI 1640 with 10% FBS, 10 mM Hepes, Penicillin/Streptomycin and glutamine and 100,000 cells were plated per well in a 96-well tissue culture plate. Supernatants were collected at 2 and 24h post plating and stored at −80° C. […]
• BioLegend (cat #430904) ELISA MAX Deluxe Set Mouse TNF-α • BioLegend (cat #431304) ELISA MAX Deluxe Set Mouse IL-6
ELISAs were conducted following the manufacturer's included protocol.

[2] = test system: LPS stimulated human PBMCs; assay: LPS stimulated human PBMC, IL-1β and IL-6 ELISA; assay type: cell-based; conditions: for inhibition of huIL1-β: Experiment 7: free payload, INX-SM-43 100-0.032 nM, INX-SM-44 1000-0.32 nM; for inhibition of IL-1β production: Experiment 8: free payload 1000-0.5 nM
How it was run: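 Human PBMC (1-2 healthy donors), 150,000 cells/well, treated with test agents at 1,000 nM down to 1 nM or 0.2 nM, in duplicate. LPS at 1 ng/ml added immediately after free payload or 4 h after conjugates; IL-1β and IL-6 in supernatants measured by ELISA.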

[3] = test system: human PBMC; assay: Cytokine production (IL-1β, IL-6) at 24 hr by human PBMC incubated with 1 ng/mL LPS; assay type: cell-based; conditions: free steroid payloads, serial dilutions, 1 ng/mL LPS, 24 hr
Experimental: (§1) FIG. 51: INX-SM-3, INX-SM-4, and INX-SM-1 inhibit IL-1β (left) and IL-6 (right) production. Cytokine levels were measured at 24 hr for human PBMCS incubated with 1 ng/mL LPS and serial dilutions (1000-1 nM) of steroid payloads, with the no treatment control plotted on the log-scale x-axis at <1 nM; n=1 donor, standard deviation plotted from technical duplicates.
as §1, with “52: INX-SM-1,” for “51:”, “INX-SM-4” for “INX-SM-4,”, “INX-SM-6” for “INX-SM-1”, “IL-1β” for “IL-1β (left) and IL-6 (right)”, “levels” for “levels were”, “ng/ml” for “ng/mL”
(§2) FIG. 53: INX-SM-9, INX-SM-31 and INX-SM-35 inhibit IL-1β (top) and IL-6 (bottom) production. Cytokine levels measured at 24 hr for human PBMCS incubated with 1 ng/mL LPS and serial dilutions (1000-0.2 nM) of steroid payloads, with the no treatment control plotted on the log-scale x-axis at <0.2 nM; n=2 donors-representative donor shown. Standard deviation plotted from technical duplicates.
as §2, with “54: INX-SM-32 inhibits” for “53: INX-SM-9, INX-SM-31 and INX-SM-35 inhibit”, “(500-1” for “(1000-0.2”, “<1” for “<0.2”, “n=2. Representative” for “n=2 donors-representative”
Cytokine levels measured at 24 hr for human PBMCS incubated with 1 ng/ml LPS and serial dilutions (1000-0.5 nM) of steroid payloads, with the no treatment control plotted on the log-scale x-axis at <0.5 nM; n=1 donor, standard deviation plotted from technical duplicates.
FIG. 56: INX-SM-2 and INX-SM-7 show inhibition in IL-1β. Average Cytokine levels measured at 24 hr for human PBMCS incubated with 1 ng/ml LPS and serial dilutions (1000-0.16 nM) of steroid payloads, with the no treatment control plotted on the log-scale x-axis at <0.16 nM; n=1, standard deviation plotted from technical duplicates. […]
Average cytokine levels measured at 24 hr for human PBMC incubated with 1 ng/ml LPS and serial dilutions (100-0.032 nM) of glucocorticoid payloads; n=1, mean of technical duplicates.
Average cytokine levels measured at 24 hr for human PBMC incubated with 1 ng/mL LPS and serial dilutions (1000-0.32 nM) of glucocorticoid payloads; n=1, mean of technical duplicates.
Cytokine levels measured at 24 hr for human PBMC incubated with 1 ng/mL LPS and serial dilutions (1000-0.5 nM) of steroid payloads, with the no treatment control plotted on the log-scale x-axis at <0.5 nM; n=1 donor, mean of technical duplicates plotted.
Average cytokine levels for A. hull-1β B. huIL-6 measured at 24 hr for human PBMC incubated with 1 ng/mL LPS and serial dilutions (1000-0.16 nM) of conjugated steroid linker payloads, with the no treatment control plotted on the log-scale x-axis at <0.16 nM; n=1, standard deviation plotted from technical duplicates. Values above the ULOQ (12,500 pg/mL for IL-1b and 150,000 pg/mL for IL-6) were plotted as the extrapolated value.
Average cytokine levels for IL-1β measured at 24 hr for human PBMC incubated with 1 ng/mL LPS and serial dilutions (1000-0.16 nM) of conjugated steroid linker payloads, with the no treatment control plotted on the log-scale x-axis at <0.16 nM; n=1, mean plotted of technical duplicates
Average cytokine levels for IL-1β measured at 24 hr for human PBMC incubated with 1 ng/mL LPS and serial dilutions (1000-0.16 nM) of conjugated steroid linker payloads, with the no treatment control plotted on the log-scale x-axis at <0.16 nM; n=1, mean plotted of technical duplicates.
FIG. 66: Analogs of INX V are potent relative to INX231J. […]

C[C@]12C=CC(=O)C=C1CC[C@@H]1[C@@H]2[C@@H](O)C[C@@]2(C)[C@H]1C[C@H]1O[C@@H](c3ccc(Cc4cccc(NC(=O)[C@H](CCC(=O)O)NC(=O)CNC(=O)CBr)c4)cc3)O[C@]12C(=O)CO [INX J, (S)-4-(2-(2-bromoacetamido)acetamido)-5-((3-(4-((6aR,6bS,7S,8aS,8bS,10R,11aR,12aS,12bS)-7-hydroxy-8b-(2-hydroxyacetyl)-6a,8a-dimethyl-4-oxo-2,4,6a,6b,7,8,8a,8b,11a,12,12a,12b-dodecahydro-1H-naphtho[2′,1′:4,5]indeno[1,2-d][1,3]dioxol-10-yl)benzyl)phenyl)amino)-5-oxopentanoic acid, reference compound]
potency in PRM cytokine model when dosed 7 days early (conclusions) [1]: show similar potency when dosed 7 days early

C[C@]12C=CC(=O)C=C1CC[C@@H]1[C@@H]2[C@@H](O)C[C@@]2(C)[C@H]1C[C@H]1O[C@@H](c3ccc(OC4CC5(CC(N)C5)C4)cc3)O[C@]12C(=O)CO (stereo partly drawn) [INX-SM-43, (6aR,6bS,7S,8aS,8bS,10R,11aR,12aS,12bS)-10-(4-((6-aminospiro[3.3]heptan-2-yl)oxy)phenyl)-7-hydroxy-8b-(2-hydroxyacetyl)-6a,8a-dimethyl-1,2,6a,6b,7,8,8a,8b,11a,12, 12a,12b-dodecahydro-4H-naphtho[2′,1′:4,5]indeno[1,2-d][1,3]dioxol-4-one]
inhibition of huIL1-β [2]: moderate inhibition of huIL1-β
inhibition of IL-1β production [3]: moderate inhibition

C[C@]12C=CC(=O)C=C1CC[C@@H]1[C@@H]2[C@@H](O)C[C@@]2(C)[C@H]1C[C@H]1O[C@@H](c3ccc(OC4CC5(CC(N)C5)C4)cc3F)O[C@]12C(=O)CO (stereo partly drawn) [INX-SM-44, (6aR,6bS,7S,8aS,8bS,10R,11aR,12aS,12bS)-10-(4-((6-aminospiro[3.3]heptan-2-yl)oxy)-2-fluorophenyl)-7-hydroxy-8b-(2-hydroxyacetyl)-6a,8a-dimethyl-1,2,6a,6b,7,8,8a,8b,11a,12,12a,12b-dodecahydro-4H-naphtho[2′,1′:4,5]indeno[1,2-d][1,3]dioxol-4-one]
inhibition of huIL1-β [2]: moderate inhibition of huIL1-β
inhibition of IL-1β production [3]: moderate inhibition

C[C@]12C=CC(=O)C=C1CC[C@@H]1[C@@H]2[C@@H](O)C[C@@]2(C)[C@H]1C[C@H]1O[C@@H](c3ccc(CC4CC(N)C45CCC5)cc3)O[C@]12C(=O)CO (stereo partly drawn) [INX-SM-45, (6aR,6bS,7S,8aS,8bS,10R,11aR,12aS,12bS)-10-(4-((3-aminospiro[3.3]heptan-1-yl)methyl)phenyl)-7-hydroxy-8b-(2-hydroxyacetyl)-6a,8a-dimethyl-1,2,6a,6b,7,8,8a,8b,11a,12,12a,12b-dodecahydro-4H-naphtho[2′,1′:4,5]indeno[1,2-d][1,3]dioxol-4-one 2,2,2-trifluoroacetate]
inhibition of IL-1β production [2]: more modest inhibition of cytokine production
inhibition of IL-1β production [3]: more modest inhibition

C[C@]12C=CC(=O)C=C1CC[C@@H]1[C@@H]2[C@@H](O)C[C@@]2(C)[C@H]1C[C@H]1O[C@@H](c3ccc(CC4CC45CCC(N)CC5)cc3)O[C@]12C(=O)CO (stereo partly drawn) [INX-SM-46, (6aR,6bS,7S,8aS,8bS,10R,11aR,12aS,12bS)-10-(4-((6-aminospiro[2.5]octan-1-yl)methyl)phenyl)-7-hydroxy-8b-(2-hydroxyacetyl)-6a,8a-dimethyl-1,2,6a,6b,7,8,8a,8b,11a,12,12a,12b-dodecahydro-4H-naphtho[2′,1′:4,5]indeno[1,2-d][1,3]dioxol-4-one 2,2,2-trifluoroacetate]
inhibition of IL-1β production [2]: more modest inhibition of cytokine production
inhibition of IL-1β production [3]: more modest inhibition

C[C@]12C=CC(=O)C=C1CC[C@@H]1[C@@H]2[C@@H](O)C[C@@]2(C)[C@H]1C[C@H]1O[C@@H](c3ccc(CC4CC5(CNC5)C4)cc3)O[C@]12C(=O)CO [INX-SM-47, (6aR,6bS,7S,8aS,8bS,10R,11aR,12aS,12bS)-10-(4-((2-azaspiro[3.3]heptan-6-yl)methyl)phenyl)-7-hydroxy-8b-(2-hydroxyacetyl)-6a,8a-dimethyl-1,2,6a,6b,7,8,8a,8b,11a,12,12a,12b-dodecahydro-4H-naphtho[2′,1′:4,5]indeno[1,2-d][1,3]dioxol-4-one 2,2,2-trifluoroacetate]
inhibition of IL-1β and IL-6 [2]: weakly inhibit IL-1β and IL-6
inhibition of IL-1β production [3]: weakly inhibit
inhibition of IL-6 production [3]: weakly inhibit

CNC1CC(Cc2ccc([C@@H]3O[C@@H]4C[C@H]5[C@@H]6CCC7=CC(=O)C=C[C@]7(C)[C@H]6[C@@H](O)C[C@]5(C)[C@]4(C(=O)CO)O3)cc2)C1 (stereo partly drawn) [INX-SM-49, (6aR,6bS,7S,8aS,8bS,10R,11aR,12aS,12bS)-7-hydroxy-8b-(2-hydroxyacetyl)-6a,8a-dimethyl-10-(4-((3-(methylamino)cyclobutyl)methyl)phenyl)-1,2,6a,6b,7,8,8a,8b,11a,12,12a,12b-dodecahydro-4H-naphtho[2′,1′:4,5]indeno[1,2-d][1,3]dioxol-4-one]
inhibition of IL-1β and IL-6 ([2]; Experiment 12: free payloads 1000-0.15 nM): weakly inhibit IL-1β and IL-6
inhibition of IL-1β production [3]: weakly inhibit
inhibition of IL-6 production [3]: weakly inhibit

Reference: patent US20250108119A1, “NOVEL STEROID PAYLOADS, STEROID LINKERS, ADCs CONTAINING AND USE THEREOF” (IMMUNEXT, INC., priority 2021, published 2025)
